Assay: 28-day once-daily oral gavage toxicity study with 14-day recovery (body weight, food consumption, clinical and anatomic pathology)
Format: in vivo
Conditions: for Decrease of group mean food consumption compared to Group 1 controls: Days 21 to 28
Experimental: J147 or vehicle was administered once daily to Sprague-Dawley rats via oral gavage for 28 consecutive days at a daily dose of 0, 30, 100 or 300 mg/kg. J174 was prepared in a vehicle formulation comprising 5% ethanol, 5% DMSO and 90% corn oil (v/v/v). Certified rodent diet and water was available ad libitum. Groups 1-4 contained 10 animals/sex/group. Groups 1 (control) and 4 (high dose) also included an additional 5 animals/sex/group for use as recovery animals. The recovery animals were maintained on study for a 14-day postdosing recovery period. Animals in Groups 1-4 were monitored for morbidity and mortality, clinical signs, detailed clinical observations, body weight, food consumption, ophthalmologic parameters, neurobehavioral assessment consisting of a Functional Observational Battery (FOB) and a motor activity test, hematology, coagulation, serum chemistry, and urinalysis parameters. Postmortem assessment included necropsy, measurement of selected organ weights, and microscopic evaluation of a standard set of tissues. Plasma samples for bioanalysis were collected on Days 1 and 28 from satellite toxicokinetic animals in Groups 5 through 8. Animals in these groups were euthanized following the last blood sampling and carcasses were discarded without examination. The study protocol is shown below in Table 1.

[1] = Group 2F: female rats, 30 mg/kg/day
[2] = Group 2M: male rats, 30 mg/kg/day
[3] = Group 3F: female rats, 100 mg/kg/day
[4] = Group 3M: male rats, 100 mg/kg/day
[5] = Group 4F: female rats, 300 mg/kg/day
[6] = Group 4M: male rats, 300 mg/kg/day
[7] = female rats, 30 mg/kg/day, Day 7 → 14
[8] = female rats, 30 mg/kg/day, Day 14 → 21
[9] = female rats, 30 mg/kg/day, Day 21 → 28
[10] = female rats, 30 mg/kg/day, Day −1 → 7
[11] = female rats, 100 mg/kg/day, Day 7 → 14
[12] = female rats, 100 mg/kg/day, Day 14 → 21
[13] = female rats, 100 mg/kg/day, Day 21 → 28
[14] = female rats, 100 mg/kg/day, Day 28
[15] = female rats, 100 mg/kg/day, Day −1 → 7
[16] = female rats, 300 mg/kg/day, Day 7 → 14
[17] = female rats, 300 mg/kg/day, Day 14 → 21
[18] = female rats, 300 mg/kg/day, Day 21 → 28
[19] = female rats, 300 mg/kg/day, Day 28
[20] = female rats, 300 mg/kg/day, Day −1 → 7
[21] = male rats, 30 mg/kg/day, Day 7 → 14

## COc1cccc(/C=N/N(C(=O)C(F)(F)F)c2ccc(C)cc2C)c1 [J147]
[1]
  Terminal Body Weight % Diff from Control: −2.4%
  Terminal Body Weight (mean): 238.10 g
[2]
  Terminal Body Weight % Diff from Control: +1.4%
  Terminal Body Weight (mean): 443.50 g
[3]
  Terminal Body Weight % Diff from Control: −7.6%
  Terminal Body Weight (mean): 225.43 g
[4]
  Terminal Body Weight % Diff from Control: −5.69%
  Terminal Body Weight (mean): 412.50 g
[5]
  Terminal Body Weight % Diff from Control: −14.23%
  Terminal Body Weight (mean): 209.24 g
[6]
  Terminal Body Weight % Diff from Control: −17.91%
  Terminal Body Weight (mean): 359.05 g
Both sexes, Sprague-Dawley, rat, in vivo, po
  NOAEL at 28 days: 30 mg/kg/day
Female rats, 30 mg/kg/day
  Increase in platelet counts: 3.8%
Female rats, 30 mg/kg/day, Day 7
  Mean Bodyweight: 220.64 g
[7]
  Food Mean Consumption: 14.89 g/animal/day
  Mean Bodyweight Gain: 13.06 g
Female rats, 30 mg/kg/day, Day 14
  Mean Bodyweight: 233.70 g
[8]
  Food Mean Consumption: 15.47 g/animal/day
  Mean Bodyweight Gain: 9.45 g
Female rats, 30 mg/kg/day, Day 21
  Mean Bodyweight: 243.15 g
[9]
  Food Mean Consumption: 15.12 g/animal/day
  Mean Bodyweight Gain: 5.08 g
Female rats, 30 mg/kg/day, Day 28
  Mean Bodyweight: 248.23 g
Female rats, 30 mg/kg/day, Day −1 (pre-dose)
  Mean Bodyweight: 203.02 g
[10]
  Food Mean Consumption: 15.49 g/animal/day
  Mean Bodyweight Gain: 17.62 g
Female rats, 30 mg/kg/day, Day −1 → 28
  Mean Bodyweight Gain: 45.21 g
Female rats, 30 mg/kg/day, Day −3 (pre-dose)
  Mean Bodyweight: 200.70 g
Female rats, 100 mg/kg/day, Day 7
  Mean Bodyweight: 215.78 g
[11]
  Food Mean Consumption: 13.85 d^4 g/animal/day
  Mean Bodyweight Gain: 9.99 d^3 g
Female rats, 100 mg/kg/day, Day 14
  Mean Bodyweight: 225.77 d^2 g
[12]
  Food Mean Consumption: 14.70 g/animal/day
  Mean Bodyweight Gain: 7.02 g
Female rats, 100 mg/kg/day, Day 21
  Mean Bodyweight: 232.79 d^2 g
[13]
  Food Mean Consumption: 13.98 g/animal/day
  Mean Bodyweight Gain: 1.60 g
[14]
  Decrease of group mean body weight compared to Group 1 controls: 6.9%
  Mean Bodyweight: 234.39 g
Female rats, 100 mg/kg/day, Day −1 (pre-dose)
  Mean Bodyweight: 206.05 g
[15]
  Food Mean Consumption: 14.33 dd^3 g/animal/day
  Mean Bodyweight Gain: 9.73 d^3 g
Female rats, 100 mg/kg/day, Day −1 → 28
  Mean Bodyweight Gain: 28.34 dd^4 g
Female rats, 100 mg/kg/day, Day −3 (pre-dose)
  Mean Bodyweight: 201.20 g
Female rats, 100 mg/kg/day
  Decrease of group mean food consumption compared to Group 1 controls: 8.6%
Female rats, 300 mg/kg/day for 28 days, Day 28 → 35 (recovery)
  Food Mean Consumption: 22.30 d^4 g/animal/day
Female rats, 300 mg/kg/day for 28 days, Day 28 → 42 (recovery)
  Mean Bodyweight Gain: 32.82 g
Female rats, 300 mg/kg/day for 28 days, Day 35 (recovery)
  Mean Bodyweight: 249.62 g
Female rats, 300 mg/kg/day for 28 days, Day 35 → 42 (recovery)
  Food Mean Consumption: 20.22 g/animal/day
Female rats, 300 mg/kg/day for 28 days, Day 42 (recovery)
  Mean Bodyweight: 258.24 g
Female rats, 300 mg/kg/day, Day 7
  Mean Bodyweight: 214.74 g
[16]
  Food Mean Consumption: 13.81 dd^3 g/animal/day
  Mean Bodyweight Gain: 8.25 dd^4 g
Female rats, 300 mg/kg/day, Day 14
  Mean Bodyweight: 222.99 dd^3 g
[17]
  Food Mean Consumption: 14.73 g/animal/day
  Mean Bodyweight Gain: 5.03 dd^4 g
Female rats, 300 mg/kg/day, Day 21
  Mean Bodyweight: 228.03 dd^3 g
[18]
  Food Mean Consumption: 12.91 d^4 g/animal/day
  Mean Bodyweight Gain: −7.49 d^3 g
[19]
  Decrease of group mean body weight compared to Group 1 controls: 12.4%
  Mean Bodyweight: 220.53 dd^3 g
Female rats, 300 mg/kg/day, Day −1 (pre-dose)
  Mean Bodyweight: 207.85 g
[20]
  Food Mean Consumption: 13.75 dd^3 g/animal/day
  Mean Bodyweight Gain: 6.89 dd^4 g
Female rats, 300 mg/kg/day, Day −1 → 28
  Mean Bodyweight Gain: 12.68 dd^4 g
Female rats, 300 mg/kg/day, Day −3 (pre-dose)
  Mean Bodyweight: 200.70 g
Female rats, 300 mg/kg/day
  Decrease of group mean food consumption compared to Group 1 controls: 15.6%
Female rats, Group 2 (30 mg/kg/day)
  Group mean weight gain from Day −1 to 28: 45 grams
Female rats, Group 3 (100 mg/kg/day)
  Group mean weight gain from Day −1 to 28: 28 grams
Female rats, Group 4 (300 mg/kg/day)
  Group mean weight gain from Day −1 to 28: 13 grams
Male rats, 30 mg/kg/day, Day 7
  Mean Bodyweight: 338.91 g
[21]
  Mean Bodyweight Gain: 52.38 g
  Mean Food Consumption: 24.85
Male rats, 30 mg/kg/day, Day 14
  Mean Bodyweight: 391.29 g

— US12357596B2, “Compounds for prevention and treatment of obesity and related disorders” (ABREXA PHARMACEUTICALS, INC., priority 2019, dated 2025)
